Laboratory results: ChEMBL document CHEMBL1201862, “PubChem BioAssay data set” (2004)
Activity calls are given as the source filed them.

How the values were obtained:
[1] = THP-1 cell cytotoxicity, dose response, cytotoxicity control for non-replicating M. tuberculosis project (AID 489025); type: functional
[2] = Vero E6 cell cytotoxicity, dose response, cytotoxicity control for non-replicating M. tuberculosis project, secondary assay (AID 492998); type: functional, VeroE6; conditions: Vero C1008
[3] = biological target: T1, Short transient receptor potential channel 4 (Mus musculus, UniProt Q9QUQ5); assay: calcium entry via TRPC4 opening agents – cell-based, HEK293 TRPC4/mu-opioid, Fluo-4 calcium, dose response (AID 434937); type: functional
T1 sequence (Q9QUQ5 whole entry): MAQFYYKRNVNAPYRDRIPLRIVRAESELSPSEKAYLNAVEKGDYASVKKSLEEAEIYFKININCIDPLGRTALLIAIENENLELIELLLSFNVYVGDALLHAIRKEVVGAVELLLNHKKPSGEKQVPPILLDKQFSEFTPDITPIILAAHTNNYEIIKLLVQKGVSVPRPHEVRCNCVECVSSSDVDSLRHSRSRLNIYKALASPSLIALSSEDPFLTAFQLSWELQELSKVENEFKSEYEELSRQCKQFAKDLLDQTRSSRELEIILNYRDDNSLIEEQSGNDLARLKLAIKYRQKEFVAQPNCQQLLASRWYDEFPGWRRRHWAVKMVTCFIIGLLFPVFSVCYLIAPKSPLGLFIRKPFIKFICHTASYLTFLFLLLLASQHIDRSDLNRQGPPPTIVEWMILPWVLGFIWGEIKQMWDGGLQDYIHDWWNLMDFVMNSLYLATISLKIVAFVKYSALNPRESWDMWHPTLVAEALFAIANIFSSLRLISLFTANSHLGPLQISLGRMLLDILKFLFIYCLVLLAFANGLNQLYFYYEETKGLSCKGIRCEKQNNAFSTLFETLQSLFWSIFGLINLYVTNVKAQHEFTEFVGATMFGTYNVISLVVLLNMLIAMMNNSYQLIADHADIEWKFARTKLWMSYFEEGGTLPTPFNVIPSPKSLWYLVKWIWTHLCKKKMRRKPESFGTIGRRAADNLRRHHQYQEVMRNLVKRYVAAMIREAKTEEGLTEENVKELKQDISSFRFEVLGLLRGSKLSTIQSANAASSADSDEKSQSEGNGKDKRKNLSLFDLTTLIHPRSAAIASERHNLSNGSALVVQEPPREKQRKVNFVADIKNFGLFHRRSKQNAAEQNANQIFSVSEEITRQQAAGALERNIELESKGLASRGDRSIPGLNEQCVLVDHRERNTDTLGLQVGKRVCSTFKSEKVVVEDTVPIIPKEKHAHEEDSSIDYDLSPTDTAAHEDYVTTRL

[4] = biological target: Peroxisome proliferator-activated receptor gamma/Nuclear receptor coactivator 1 (Homo sapiens, UniProt P37231); assay: (§1) TR-FRET dose response biochemical High Throughput Screening assay for agonists of the steroid receptor coactivator 1 (SRC-1) recruitment by the peroxisome proliferator-activated receptor gamma (PPAR gamma): non-selective agonists. [Related pubchem assays (depositor defined):AID1300, AID1808, AID504735, AID631]; type: protein assay
[5] = biological target: Peroxisome proliferator-activated receptor gamma/Nuclear receptor coactivator 3 (Homo sapiens, UniProt P37231); assay: as §1, with “3 (SRC-3)” for “1 (SRC-1)”, “assays: 1301 (Confirmation screen.), 1048 (Primary screen.)]” for “assays (depositor defined):AID1300, AID1808, AID504735, AID631]”; type: functional
[6] = biological target: Peroxisome proliferator-activated receptor gamma/Nuclear receptor coactivator 2 (Homo sapiens, UniProt P37231); assay: TR-FRET dose response biochemical High Throughput Screening assay for agonists of the steroid receptor coactivator 2 (SRC-2) recruitment by the peroxisome proliferator-activated receptor gamma (PPAR gamma): non-selective agonists. [Related pubchem assays: 1297, 1032 ]; type: functional
Aminopeptidase N = biological target: T2, Aminopeptidase N (Plasmodium falciparum FcB1/Columbia, UniProt O96935); assay: malaria alanyl aminopeptidase activity blockers – biochemical, fluorogenic H-Leu-NHMec substrate, 1536-well (AID 1445); parameters: species or system Plasmodium falciparum 3D7, 3D7
T2 sequence (O96935 whole entry): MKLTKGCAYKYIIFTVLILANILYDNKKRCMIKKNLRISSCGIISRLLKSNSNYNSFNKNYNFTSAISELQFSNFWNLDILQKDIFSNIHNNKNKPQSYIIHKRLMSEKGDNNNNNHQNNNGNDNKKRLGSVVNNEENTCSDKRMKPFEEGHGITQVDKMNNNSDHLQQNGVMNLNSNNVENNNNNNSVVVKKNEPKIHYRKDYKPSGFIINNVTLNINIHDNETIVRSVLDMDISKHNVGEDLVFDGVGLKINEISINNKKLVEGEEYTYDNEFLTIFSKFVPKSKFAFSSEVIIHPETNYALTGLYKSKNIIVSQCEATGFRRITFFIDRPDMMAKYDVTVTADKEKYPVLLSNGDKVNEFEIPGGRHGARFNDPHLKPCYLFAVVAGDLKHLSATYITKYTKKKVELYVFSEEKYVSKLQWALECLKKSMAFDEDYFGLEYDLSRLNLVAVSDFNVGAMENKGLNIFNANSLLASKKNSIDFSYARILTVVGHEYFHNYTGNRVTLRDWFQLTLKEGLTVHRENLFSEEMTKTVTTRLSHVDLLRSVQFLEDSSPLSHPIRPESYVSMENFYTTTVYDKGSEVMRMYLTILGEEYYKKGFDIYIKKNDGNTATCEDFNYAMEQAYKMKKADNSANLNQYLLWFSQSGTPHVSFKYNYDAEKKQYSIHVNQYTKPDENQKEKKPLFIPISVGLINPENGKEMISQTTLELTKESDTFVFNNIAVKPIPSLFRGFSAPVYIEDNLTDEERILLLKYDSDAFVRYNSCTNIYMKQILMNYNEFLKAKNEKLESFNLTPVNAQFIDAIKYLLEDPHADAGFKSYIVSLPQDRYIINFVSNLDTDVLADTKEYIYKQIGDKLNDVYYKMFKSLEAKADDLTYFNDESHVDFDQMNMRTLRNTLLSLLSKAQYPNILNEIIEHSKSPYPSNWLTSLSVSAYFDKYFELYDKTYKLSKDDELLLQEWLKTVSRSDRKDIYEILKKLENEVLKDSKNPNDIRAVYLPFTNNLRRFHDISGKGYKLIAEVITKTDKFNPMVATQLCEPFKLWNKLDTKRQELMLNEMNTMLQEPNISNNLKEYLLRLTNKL

[7] = biological target: Voltage-dependent T-type calcium channel subunit alpha-1H (Homo sapiens, UniProt O95180); type: functional;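 also: channel activity triggered by adding a high calcium stimulation buffer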
Prothrombin = Prothrombin (Homo sapiens, UniProt P00734); assay: Thrombin 1536 HTS Dose Response Confirmation. [Related pubchem assays: 1046 (Thrombin 1536 HTS; hits were confirmed in this assay)]; type: functional
[8] = Luminescence Cell-Based Dose Confirmation HTS to Identify Inhibitors of Platelet Dense Granule Release. [Related pubchem assays: 1663 (Primary HTS), 1678 (Summary of Project)]; type: functional
[9] = biological target: Luciferin 4-monooxygenase (Photinus pyralis, UniProt P08659); assay: inhibition of purified Photinus pyralis luciferase – biochemical, luminescence, dose response (AID 1891)
Leucine aminopeptidase = biological target: T3, Leucine aminopeptidase (Plasmodium falciparum 3D7, UniProt Q8IL11); assay: P. falciparum M17LAP inhibitors, primary screen, biochemical, fluorogenic H-Leu-NHMec substrate, 1536-well (AID 1619); type: functional
T3 sequence (Q8IL11 whole entry): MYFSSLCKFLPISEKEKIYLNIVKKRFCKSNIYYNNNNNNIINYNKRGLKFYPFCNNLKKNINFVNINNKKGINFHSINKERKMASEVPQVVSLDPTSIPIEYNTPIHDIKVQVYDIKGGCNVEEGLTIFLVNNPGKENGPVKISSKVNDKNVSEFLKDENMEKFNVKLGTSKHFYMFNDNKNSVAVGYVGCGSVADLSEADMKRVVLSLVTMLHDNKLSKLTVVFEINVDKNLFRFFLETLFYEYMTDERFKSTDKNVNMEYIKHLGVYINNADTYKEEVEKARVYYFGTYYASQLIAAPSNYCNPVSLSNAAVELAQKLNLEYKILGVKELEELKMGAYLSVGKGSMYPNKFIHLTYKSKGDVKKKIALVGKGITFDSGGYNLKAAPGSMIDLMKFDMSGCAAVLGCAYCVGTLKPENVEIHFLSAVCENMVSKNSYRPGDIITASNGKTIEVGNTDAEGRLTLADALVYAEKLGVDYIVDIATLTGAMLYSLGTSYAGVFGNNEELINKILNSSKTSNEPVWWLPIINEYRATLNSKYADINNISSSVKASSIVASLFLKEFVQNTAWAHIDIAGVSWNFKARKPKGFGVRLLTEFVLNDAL

Protein RecA = biological target: T4, Protein RecA (Mycobacterium tuberculosis, UniProt P9WHJ3); assay: Fluorescence Cell-Free Homogeneous Dose Retest to Identify Inhibitors of RecA-Intein Splicing Activity. [Related pubchem assays (depositor defined):AID2097, AID2223, AID489010, AID492950]; type: functional
T4 sequence (P9WHJ3 whole entry): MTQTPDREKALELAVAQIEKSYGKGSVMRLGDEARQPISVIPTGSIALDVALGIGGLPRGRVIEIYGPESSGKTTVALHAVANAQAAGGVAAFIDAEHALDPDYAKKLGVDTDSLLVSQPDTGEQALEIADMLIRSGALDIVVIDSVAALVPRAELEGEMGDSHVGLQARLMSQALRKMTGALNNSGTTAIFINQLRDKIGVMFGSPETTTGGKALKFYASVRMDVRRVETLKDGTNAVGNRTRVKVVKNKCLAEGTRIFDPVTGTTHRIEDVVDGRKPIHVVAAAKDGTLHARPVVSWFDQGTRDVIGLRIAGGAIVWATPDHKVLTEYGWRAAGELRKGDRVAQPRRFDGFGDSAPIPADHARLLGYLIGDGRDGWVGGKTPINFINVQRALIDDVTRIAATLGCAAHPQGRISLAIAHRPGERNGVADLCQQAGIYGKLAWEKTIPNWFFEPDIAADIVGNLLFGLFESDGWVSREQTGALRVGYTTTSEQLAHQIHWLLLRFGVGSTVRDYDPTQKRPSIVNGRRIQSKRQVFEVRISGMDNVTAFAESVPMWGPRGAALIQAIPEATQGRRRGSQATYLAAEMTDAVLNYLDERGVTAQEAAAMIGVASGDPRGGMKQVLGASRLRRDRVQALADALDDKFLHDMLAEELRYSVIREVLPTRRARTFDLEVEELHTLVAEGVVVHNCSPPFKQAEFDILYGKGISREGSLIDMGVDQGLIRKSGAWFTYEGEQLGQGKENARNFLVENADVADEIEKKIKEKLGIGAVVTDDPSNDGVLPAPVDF

[10] = blockers of HIV-1 ZM109 envelope-driven cell-cell fusion – HeLa effector, CEM target cells, luciferase, cherry-pick, dose response (AID 652058); type: functional, cell-based;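 also: luciferase signal from HIV-1 Env mediated cell-cell fusion of effector and target cells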
[11] = blockers of HIV-1 envelope-mediated cell-cell fusion – cherry-pick, dose response (AID 652057); type: functional, cell-based
[12] = HIV-1 AD8 envelope cell-cell fusion blockers – cherry-pick, dose response (AID 652062); type: functional, cell-based;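 also: luciferase signal from cell-cell fusion driven by HIV-1 clade B AD8 Env; potency is for inhibitors of fusion seen as a drop in luminescence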
[13] = off-target signal loss in HeLa-CEM21 co-culture – HeLa F-luc CTL cells, cherry-picked, counter-screen for HIV-1 Env fusion inhibitor project, dose response (AID 652040); type: functional, cell-based;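 also: potency for signal decrease marking cytotoxic or nonspecific inhibition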
cells = type: functional

Voltage-dependent T-type calcium channel subunit alpha-1H, sequence (O95180 whole entry): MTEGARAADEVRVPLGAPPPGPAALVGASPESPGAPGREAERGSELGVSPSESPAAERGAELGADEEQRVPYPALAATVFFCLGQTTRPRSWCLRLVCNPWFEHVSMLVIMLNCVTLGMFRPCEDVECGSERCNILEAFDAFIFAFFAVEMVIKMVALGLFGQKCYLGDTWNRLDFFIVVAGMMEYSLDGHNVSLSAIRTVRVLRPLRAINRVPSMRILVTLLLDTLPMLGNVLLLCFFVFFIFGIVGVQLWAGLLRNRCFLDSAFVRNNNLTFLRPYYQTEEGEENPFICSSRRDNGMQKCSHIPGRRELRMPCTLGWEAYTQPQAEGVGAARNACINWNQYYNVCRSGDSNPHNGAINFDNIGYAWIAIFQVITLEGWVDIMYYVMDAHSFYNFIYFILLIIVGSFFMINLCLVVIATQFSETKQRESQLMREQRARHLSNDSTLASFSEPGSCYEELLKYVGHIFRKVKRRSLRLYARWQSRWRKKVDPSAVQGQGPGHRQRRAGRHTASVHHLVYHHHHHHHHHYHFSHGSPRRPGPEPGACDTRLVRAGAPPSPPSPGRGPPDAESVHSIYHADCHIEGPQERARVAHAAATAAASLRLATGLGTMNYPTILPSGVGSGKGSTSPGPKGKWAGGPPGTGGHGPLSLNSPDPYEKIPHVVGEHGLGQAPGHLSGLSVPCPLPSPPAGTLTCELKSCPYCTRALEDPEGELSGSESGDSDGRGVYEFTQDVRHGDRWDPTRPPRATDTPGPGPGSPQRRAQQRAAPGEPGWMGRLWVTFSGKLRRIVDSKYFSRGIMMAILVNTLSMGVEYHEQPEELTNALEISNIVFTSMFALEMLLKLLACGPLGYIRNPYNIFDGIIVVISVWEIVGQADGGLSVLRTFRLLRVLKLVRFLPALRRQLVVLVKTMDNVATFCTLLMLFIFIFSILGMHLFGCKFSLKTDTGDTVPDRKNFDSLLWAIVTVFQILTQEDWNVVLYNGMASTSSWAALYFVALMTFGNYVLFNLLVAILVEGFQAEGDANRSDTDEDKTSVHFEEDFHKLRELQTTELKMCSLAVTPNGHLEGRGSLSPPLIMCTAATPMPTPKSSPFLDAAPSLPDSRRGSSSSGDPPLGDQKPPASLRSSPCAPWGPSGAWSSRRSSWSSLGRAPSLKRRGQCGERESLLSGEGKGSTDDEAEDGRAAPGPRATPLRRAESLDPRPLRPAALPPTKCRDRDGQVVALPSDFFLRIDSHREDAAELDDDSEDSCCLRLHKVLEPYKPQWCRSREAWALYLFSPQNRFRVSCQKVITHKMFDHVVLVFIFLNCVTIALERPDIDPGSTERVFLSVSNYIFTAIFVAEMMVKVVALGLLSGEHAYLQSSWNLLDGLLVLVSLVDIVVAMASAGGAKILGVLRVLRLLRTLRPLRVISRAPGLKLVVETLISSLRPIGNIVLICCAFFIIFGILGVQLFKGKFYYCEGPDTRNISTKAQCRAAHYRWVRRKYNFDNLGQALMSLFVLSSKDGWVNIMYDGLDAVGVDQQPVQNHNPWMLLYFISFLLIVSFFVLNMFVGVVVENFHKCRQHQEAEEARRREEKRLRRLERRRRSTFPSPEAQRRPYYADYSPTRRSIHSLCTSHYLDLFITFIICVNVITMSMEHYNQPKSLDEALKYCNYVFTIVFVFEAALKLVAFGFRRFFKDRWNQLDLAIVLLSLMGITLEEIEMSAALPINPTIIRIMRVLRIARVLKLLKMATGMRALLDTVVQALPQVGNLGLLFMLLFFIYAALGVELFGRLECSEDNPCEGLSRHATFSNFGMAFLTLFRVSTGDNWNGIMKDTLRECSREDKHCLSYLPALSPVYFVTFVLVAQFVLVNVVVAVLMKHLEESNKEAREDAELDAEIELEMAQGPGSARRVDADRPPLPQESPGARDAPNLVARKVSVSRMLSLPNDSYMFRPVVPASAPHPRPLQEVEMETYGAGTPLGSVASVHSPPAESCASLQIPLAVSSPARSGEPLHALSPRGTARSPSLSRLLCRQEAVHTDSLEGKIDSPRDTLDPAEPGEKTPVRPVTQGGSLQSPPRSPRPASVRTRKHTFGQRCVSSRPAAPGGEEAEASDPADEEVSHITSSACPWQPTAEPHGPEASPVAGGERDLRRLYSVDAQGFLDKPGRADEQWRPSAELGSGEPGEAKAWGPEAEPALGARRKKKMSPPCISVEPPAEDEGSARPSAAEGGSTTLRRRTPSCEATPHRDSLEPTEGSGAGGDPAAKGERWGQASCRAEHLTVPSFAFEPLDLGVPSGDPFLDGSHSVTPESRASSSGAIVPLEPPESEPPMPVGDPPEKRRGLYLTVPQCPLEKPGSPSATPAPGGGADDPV
Peroxisome proliferator-activated receptor gamma/Nuclear receptor coactivator 1, sequence (P37231 whole entry): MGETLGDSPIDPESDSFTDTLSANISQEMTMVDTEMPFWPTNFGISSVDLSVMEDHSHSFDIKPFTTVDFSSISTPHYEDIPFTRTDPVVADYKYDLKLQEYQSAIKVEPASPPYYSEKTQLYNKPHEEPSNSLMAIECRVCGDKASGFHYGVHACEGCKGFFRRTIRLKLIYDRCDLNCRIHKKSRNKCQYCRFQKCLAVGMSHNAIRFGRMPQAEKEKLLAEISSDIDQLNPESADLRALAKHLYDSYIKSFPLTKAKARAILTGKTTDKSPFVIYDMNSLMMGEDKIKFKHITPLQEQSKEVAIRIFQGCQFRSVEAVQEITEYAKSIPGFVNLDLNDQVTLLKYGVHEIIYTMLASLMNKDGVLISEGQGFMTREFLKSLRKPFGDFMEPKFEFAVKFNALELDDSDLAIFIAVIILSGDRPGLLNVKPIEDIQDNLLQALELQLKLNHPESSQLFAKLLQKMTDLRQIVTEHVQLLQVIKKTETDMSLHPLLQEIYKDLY
Peroxisome proliferator-activated receptor gamma/Nuclear receptor coactivator 1, sequence (Q15788 whole entry, further chain): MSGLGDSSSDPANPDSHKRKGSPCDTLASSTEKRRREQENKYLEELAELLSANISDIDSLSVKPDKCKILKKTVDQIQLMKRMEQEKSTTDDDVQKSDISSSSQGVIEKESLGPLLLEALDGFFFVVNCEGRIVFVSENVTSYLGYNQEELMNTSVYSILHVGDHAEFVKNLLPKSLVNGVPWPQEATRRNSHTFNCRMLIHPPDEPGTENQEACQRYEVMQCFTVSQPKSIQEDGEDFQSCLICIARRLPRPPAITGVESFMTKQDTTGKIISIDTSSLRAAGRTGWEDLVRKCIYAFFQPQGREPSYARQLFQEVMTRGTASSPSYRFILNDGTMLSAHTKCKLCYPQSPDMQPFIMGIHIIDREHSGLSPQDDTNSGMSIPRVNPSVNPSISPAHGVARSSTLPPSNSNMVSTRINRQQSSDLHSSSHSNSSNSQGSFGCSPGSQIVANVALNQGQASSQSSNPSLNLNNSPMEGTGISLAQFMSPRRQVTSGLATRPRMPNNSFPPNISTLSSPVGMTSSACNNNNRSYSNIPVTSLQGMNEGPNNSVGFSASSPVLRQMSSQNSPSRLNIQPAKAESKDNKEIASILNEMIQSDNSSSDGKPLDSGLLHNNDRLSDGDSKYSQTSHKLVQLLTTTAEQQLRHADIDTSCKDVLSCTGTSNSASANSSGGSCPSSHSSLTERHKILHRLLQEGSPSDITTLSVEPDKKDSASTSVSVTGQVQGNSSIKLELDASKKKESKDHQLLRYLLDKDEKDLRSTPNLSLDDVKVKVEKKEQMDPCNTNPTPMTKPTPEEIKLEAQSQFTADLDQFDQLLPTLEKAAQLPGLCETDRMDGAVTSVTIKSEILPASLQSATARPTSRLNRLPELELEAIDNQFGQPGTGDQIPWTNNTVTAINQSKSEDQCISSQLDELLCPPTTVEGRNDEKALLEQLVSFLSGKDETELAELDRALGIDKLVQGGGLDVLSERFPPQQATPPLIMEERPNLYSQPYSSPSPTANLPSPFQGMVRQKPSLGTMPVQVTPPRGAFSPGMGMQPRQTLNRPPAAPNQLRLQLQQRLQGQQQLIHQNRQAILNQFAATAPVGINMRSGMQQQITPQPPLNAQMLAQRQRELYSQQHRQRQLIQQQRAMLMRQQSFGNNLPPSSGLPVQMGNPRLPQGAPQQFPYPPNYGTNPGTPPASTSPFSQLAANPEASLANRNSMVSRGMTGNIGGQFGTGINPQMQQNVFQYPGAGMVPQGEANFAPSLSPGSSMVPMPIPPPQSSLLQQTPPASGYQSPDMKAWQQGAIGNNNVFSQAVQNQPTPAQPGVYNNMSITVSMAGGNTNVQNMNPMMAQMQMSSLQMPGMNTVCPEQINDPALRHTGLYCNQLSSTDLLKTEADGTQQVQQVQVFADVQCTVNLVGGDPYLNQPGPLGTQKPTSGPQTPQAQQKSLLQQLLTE
Luciferin 4-monooxygenase, sequence (P08659 whole entry): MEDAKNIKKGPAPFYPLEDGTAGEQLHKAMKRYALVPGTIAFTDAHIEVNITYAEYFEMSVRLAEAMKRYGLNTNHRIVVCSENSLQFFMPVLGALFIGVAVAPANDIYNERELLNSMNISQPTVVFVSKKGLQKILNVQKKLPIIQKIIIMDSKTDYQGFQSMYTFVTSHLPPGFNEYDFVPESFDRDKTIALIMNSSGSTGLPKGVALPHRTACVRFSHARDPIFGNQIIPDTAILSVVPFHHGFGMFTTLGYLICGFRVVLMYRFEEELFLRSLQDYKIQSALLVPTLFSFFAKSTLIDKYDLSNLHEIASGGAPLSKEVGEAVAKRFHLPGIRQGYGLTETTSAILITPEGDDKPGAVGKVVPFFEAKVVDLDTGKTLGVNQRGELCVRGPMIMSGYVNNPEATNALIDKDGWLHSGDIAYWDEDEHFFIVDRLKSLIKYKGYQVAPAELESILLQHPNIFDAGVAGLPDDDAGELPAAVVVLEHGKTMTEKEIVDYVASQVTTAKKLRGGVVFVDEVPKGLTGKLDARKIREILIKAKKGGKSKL

COc1ccc(C)c2sc(NC(=O)CCS(=O)(=O)c3ccccc3)nc12
CC50 [1]: 23.1 µM (active)
CC50 [2]: > 20 µM (active)

Cc1ccc(Cn2c(SCCN3CCCCC3)nc3c2c(=O)n(C)c(=O)n3C)cc1
EC50 [3]: 11.9 µM (active)

CCc1cc2cc(C(=O)Nc3ccc(F)cc3)sc2s1
EC50 [4]: > 79.4 µM (inactive)
EC50 [5]: > 79.4 µM (not active)
EC50 [6]: 57.1 µM (not active)

CCC(C)(C)NC(=O)CN(Cc1ccc2c(c1)OCO2)C(=O)CCC(=O)Nc1nccs1
IC50 (Aminopeptidase N): 87.6 µM (active)

Cc1cccc(N2CCN(C(=O)C(Cc3ccccc3)n3cccc3)CC2)c1C (stereo not drawn)
EC50 [7]: 8.08 µM (active)

Oc1ccc(-c2nc3ccccc3s2)cc1
IC50 (Prothrombin): > 50 µM (not active)
EC50 [8]: 47.5 µM (active)
EC50 [9]: 1.26 µM (active)

CCc1cc2cc3c(cc2nc1SCC(=O)Nc1cc(OC)c(OC)cc1C(=O)O)OCO3
IC50 (Leucine aminopeptidase): < 1 µM (active)
IC50 (Aminopeptidase N): 76 µM (active)

COc1cc(OC)cc(C(=O)NC2CCCN(Cc3ccc(Cl)cc3)C2)c1 (stereo not drawn)
EC50 [3]: 5.96 µM (active)

O=[N+]([O-])c1cncc([N+](=O)[O-])c1Nc1cccc(O)c1
CC50 [1]: 27 µM (active)
CC50 [2]: 15.7 µM (active)
EC50 (Protein RecA): 3.28 µM (active)

COc1cc(NC(=O)C2COc3ccccc3O2)c(OC)cc1Cl (stereo not drawn)
EC50 [7]: 8.09 µM (active)

CCn1cc(C(=O)NCc2ccc3c(c2)OCO3)c(=O)c2cc(S(=O)(=O)N3CCOCC3)ccc21
IC50 (Prothrombin): 0.158 µM (active)

O=C(CN1C(=O)C2CCCCN2C(=O)c2ccccc21)N1CCCc2ccccc21 (stereo not drawn)
IC50 (Aminopeptidase N): 103 µM (active)

CC(=O)Nc1sc2c(c1C(c1ccc(F)cc1)N1CCOCC1)CCCC2 (stereo not drawn)
AC50 [10]: 11.6 µM (active)
AC50 [11]: 5.3 µM (active)
AC50 [12]: 32.8 µM (active)
AC50 [13]: > 70 µM (inactive)

O=C(Nc1ccccc1C(F)(F)F)c1ccc(CN2CCC(Cc3ccccc3)CC2)cc1
EC50 [7]: 0.227 µM (active)

Cc1ccc(-c2ccc(/C=N/NC(=O)CN3CCOCC3)o2)cc1[N+](=O)[O-]
CC50 [1]: > 40 µM (active)
IC50 (cells): 22.5 µM (active)

Cn1c(N2CCNCC2)nc2ccccc21
EC50 [3]: 0.149 µM (active)

CCn1c(=O)cc(SCC(=O)N2CCN(c3ccccn3)CC2)c2ccccc21
EC50 [4]: > 79.4 µM (inactive)
EC50 [5]: > 79.4 µM (not active)
EC50 [6]: > 79.4 µM (not active)

Cc1ccccc1NC(=O)CCl
IC50 (Prothrombin): > 50 µM (not active)

O=C(CNS(=O)(=O)c1ccc2ccccc2c1)NCCc1ccccn1
EC50 [3]: 9.44 µM (active)
